Laboratory results from PubChem BioAssay AID1919016 (Molecular Pharmacology Branch, DTP, NCI, 2023).

Test system: NCI-H196 complex spheroid growth, percent test/control
Test: Anticancer human tumor NCI-H196 cell line growth inhibition [AhR];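 further: seven days of drug exposure starting three days after plating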;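 on viability, T/C: 100% = DMSO vehicle control wells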
Settings: for IC50: curve of first compound; for viability, T/C: stronger effect = lower value; active means viability on the fitted dose curve at most 10% of control; inactive means the rest
Outline: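 Agents were dosed in half-log steps down from roughly clinical Cmax, or from 10 microM where Cmax was unknown, alone and with AhR antagonists. Read-out: percent test/control growth of tumor spheroids containing HUVEC and MSC stromal cells.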

[1] = second compound 0.1 µM, first compound 0.0316 µM
[2] = second compound 0.1 µM, first compound 0.1 µM
[3] = second compound 0.1 µM, first compound 0.316 µM
[4] = second compound 0.1 µM, first compound 1 µM
[5] = second compound 0.1 µM, first compound 3.16 µM
[6] = second compound 0.1 µM, first compound 10 µM
[7] = second compound 0.316 µM, first compound 0.0316 µM
[8] = second compound 0.316 µM, first compound 0.1 µM
[9] = second compound 0.316 µM, first compound 0.316 µM
[10] = second compound 0.316 µM, first compound 1 µM
[11] = second compound 0.316 µM, first compound 3.16 µM
[12] = second compound 0.316 µM, first compound 10 µM
[13] = second compound 1 µM, first compound 0.0316 µM
[14] = second compound 1 µM, first compound 0.1 µM
[15] = second compound 1 µM, first compound 0.316 µM
[16] = second compound 1 µM, first compound 1 µM
[17] = second compound 1 µM, first compound 3.16 µM
[18] = second compound 1 µM, first compound 10 µM
[19] = second compound 3.16 µM, first compound 0.0316 µM
[20] = second compound 3.16 µM, first compound 0.1 µM
[21] = second compound 3.16 µM, first compound 0.316 µM
[22] = second compound 3.16 µM, first compound 1 µM
[23] = second compound 3.16 µM, first compound 3.16 µM
[24] = second compound 3.16 µM, first compound 10 µM
[25] = second compound 10 µM, first compound 0.0316 µM
[26] = second compound 10 µM, first compound 0.1 µM
[27] = second compound 10 µM, first compound 0.316 µM
[28] = second compound 10 µM, first compound 1 µM
[29] = second compound 10 µM, first compound 3.16 µM
[30] = second compound 10 µM, first compound 10 µM

Nc1ccn(C2OC(CO)C(O)C2(F)F)c(=O)n1 (stereo not given) + Cc1cncc(-c2nc(NCCc3c[nH]c4ccccc34)c3ncn(C(C)C)c3n2)c1
inactive: viability, T/C [1] 71.4% | viability, T/C [2] 60.1% | viability, T/C [3] 50.4% | viability, T/C [4] 48.8% | viability, T/C [5] 43.4% | viability, T/C [6] 52% | viability, T/C [7] 83.1% | viability, T/C [8] 62.8% | viability, T/C [9] 51.4% | viability, T/C [10] 47.3% | viability, T/C [11] 51.3% | viability, T/C [12] 43.8% | viability, T/C [13] 71.5% | viability, T/C [14] 60.7% | viability, T/C [15] 49.5% | viability, T/C [16] 54.3% | viability, T/C [17] 45.5% | viability, T/C [18] 46.7% | viability, T/C [19] 81.3% | viability, T/C [20] 70.6% | viability, T/C [21] 48.3% | viability, T/C [22] 45.2% | viability, T/C [23] 47.8% | viability, T/C [24] 45.3% | viability, T/C [25] 76.6% | viability, T/C [26] 88.1% | viability, T/C [27] 78% | viability, T/C [28] 53.1% | viability, T/C [29] 54.8% | viability, T/C [30] 57.1%
620 nM: IC50 (second compound 0.316 µM)
377 nM: IC50 (second compound 0.1 µM)
289 nM: IC50 (second compound 3.16 µM)
> 10000 nM: IC50 (second compound 10 µM)
811 nM: IC50 (second compound 1 µM)

O=C(c1cc(Cc2n[nH]c(=O)c3ccccc23)ccc1F)N1CCN(C(=O)C2CC2)CC1 + Cc1cncc(-c2nc(NCCc3c[nH]c4ccccc34)c3ncn(C(C)C)c3n2)c1
> 10000 nM: IC50 (second compound 0.1 µM) | IC50 (second compound 0.316 µM) | IC50 (second compound 1 µM) | IC50 (second compound 3.16 µM) | IC50 (second compound 10 µM)
inactive: viability, T/C [1] 103% | viability, T/C [2] 102% | viability, T/C [3] 96.1% | viability, T/C [4] 96% | viability, T/C [5] 98.8% | viability, T/C [6] 87.4% | viability, T/C [7] 101% | viability, T/C [8] 101% | viability, T/C [9] 103% | viability, T/C [10] 94% | viability, T/C [11] 107% | viability, T/C [12] 91.2% | viability, T/C [13] 105% | viability, T/C [14] 90.5% | viability, T/C [15] 105% | viability, T/C [16] 93.4% | viability, T/C [17] 101% | viability, T/C [18] 97.7% | viability, T/C [19] 113% | viability, T/C [20] 106% | viability, T/C [21] 98.1% | viability, T/C [22] 99.7% | viability, T/C [23] 103% | viability, T/C [24] 99.6% | viability, T/C [25] 81.9% | viability, T/C [26] 91.7% | viability, T/C [27] 87.4% | viability, T/C [28] 88.7% | viability, T/C [29] 86.9% | viability, T/C [30] 93.8%
